Results from patent US20230085307A1, “PYRIDAZINONE COMPOUND AND HERBICIDE” (NISSAN CHEMICAL CORPORATION, priority 2019, published 2023).

Tests used:
chickweed = test: Test Example 5: herbicidal effect by foliage application, plastic box (Table 20, symbol P); type: in vivo, common chickweed (Stellaria media); details: foliage application, 320 g/ha, evaluated three weeks after application
Method in brief: (§1)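 Sow seeds spot-wise in sterilized diluvial soil; cover with ~1.5 cm soil. Grow 14 days in greenhouse, 25° C. to 30° C. Spray foliage with emulsion diluted to predetermined amount. Rate effect after 3 weeks.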

barnyard grass [1] = test: Test Example 3: herbicidal effect by foliage application, Wagner pot (Table 18, symbol H); type: in vivo, barnyard grass (Echinochloa crus-galli); details: amount of applied herbicide 320 g/ha
Method in brief: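 Plants were sown in alluvial soil held under 0.1–0.5 cm standing water and grown 14 days in a greenhouse at 25–30 °C. An emulsifiable formulation, water-diluted to the set dose, was then sprayed onto the foliage, and effects were scored three weeks later using previously defined criteria.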

redroot pigweed [2] = test: Test Example 5: herbicidal effect by foliage application, plastic box (Table 20, symbol N); type: in vivo, redroot pigweed (Amaranthus retroflexus); details: foliage application, 320 g/ha, evaluated three weeks after application
Method in brief: as §1

velvetleaf = test: Test Example 4: herbicidal effect by soil treatment (Table 19, symbol M); type: in vivo, velvetleaf (Abutilon theophrasti); details: amount of applied herbicide 320 g/ha
Method in brief: (§2)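 Applied as a water-diluted emulsion, the compound was sprayed onto soil covering newly sown seeds. Evaluation came three weeks after application, in a greenhouse held at 25° C. to 30° C.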

persian speedwell [3] = test: Test Example 5: herbicidal effect by foliage application, plastic box (Table 20, symbol R); type: in vivo, Persian speedwell (Veronica persica); details: foliage application, 320 g/ha, evaluated three weeks after application
Method in brief: as §1

oval-leafed pondweed [4] = test: Test Example 1: herbicidal activity, application before weed generation under submerged conditions (Table 16, symbol C); type: in vivo, oval-leafed pondweed (Monochoria vaginalis); details: 320 g/ha applied herbicide
Method in brief: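 Emulsion formulation, water-diluted to set dose, was put onto the flooded surface (4 cm depth, alluvial soil) the same day weeds were sown and 2.5-leaf rice transplanted. After 3 weeks at 25-30 °C under glass, each species was rated 0 (≤5% kill) to 5 (≥90% kill).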

windgrass = test: Test Example 5: herbicidal effect by foliage application, plastic box (Table 20, symbol L); type: in vivo, windgrass (Apera spica-venti); details: foliage application, 320 g/ha, evaluated three weeks after application
Method in brief: as §1

Japanese bulrush = test: Test Example 2: herbicidal activity, application during weed generation under submerged conditions (Table 17, symbol B); type: in vivo, Japanese bulrush (Schoenoplectus juncoides); details: AAH 320 g/ha; application during weed generation, submerged conditions
Method in brief: (§3)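 Steps: fill Wagner pots with alluvial soil; add water to give 4 cm depth; sow the species mixed; grow under glass at 25–30° C.; at 1–2 leaves apply water-diluted emulsion formulation to the water surface at a fixed herbicide amount; score after 3 weeks.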

redroot pigweed [5] = test: Test Example 4: herbicidal effect by soil treatment (Table 19, symbol N); type: in vivo, redroot pigweed (Amaranthus retroflexus); details: amount of applied herbicide 320 g/ha
Method in brief: as §2

green foxtail = test: Test Example 4: herbicidal effect by soil treatment (Table 19, symbol G); type: in vivo, green foxtail (Setaria viridis); details: amount of applied herbicide 320 g/ha
Method in brief: as §2

persian speedwell [6] = test: Test Example 4: herbicidal effect by soil treatment (Table 19, symbol R); type: in vivo, Persian speedwell (Veronica persica); details: amount of applied herbicide 320 g/ha
Method in brief: as §2

southern crabgrass = test: Test Example 5: herbicidal effect by foliage application, plastic box (Table 20, symbol F); type: in vivo, southern crabgrass (Digitaria ciliaris); details: foliage application, 320 g/ha, evaluated three weeks after application
Method in brief: as §1

blackgrass = test: Test Example 4: herbicidal effect by soil treatment (Table 19, symbol J); type: in vivo, blackgrass (Alopecurus myosuroides); details: amount of applied herbicide 320 g/ha
Method in brief: as §2

barnyard grass [7] = test: Test Example 4: herbicidal effect by soil treatment (Table 19, symbol H); type: in vivo, barnyard grass (Echinochloa crus-galli); details: amount of applied herbicide 320 g/ha
Method in brief: as §2

oval-leafed pondweed [8] = test: Test Example 2: herbicidal activity, application during weed generation under submerged conditions (Table 17, symbol C); type: in vivo, oval-leafed pondweed (Monochoria vaginalis); details: AAH 320 g/ha; application during weed generation, submerged conditions
Method in brief: as §3

lambsquarters = test: Test Example 5: herbicidal effect by foliage application, plastic box (Table 20, symbol O); type: in vivo, lambsquarters (Chenopodium album); details: foliage application, 320 g/ha, evaluated three weeks after application
Method in brief: as §1

SMILES	herbicidal effect on P: chickweed (criteria 0-5) (chickweed)	herbicidal effect on H: barnyard grass (barnyard grass [1])	herbicidal effect on N: redroot pigweed (criteria 0-5) (redroot pigweed [2])	M: velvetleaf, herbicidal effect rating (velvetleaf)	herbicidal effect on R: persian speedwell (criteria 0-5) (persian speedwell [3])	Herbicidal effect on C: oval-leafed pondweed (grade 0-5) (oval-leafed pondweed [4])	herbicidal effect on L: windgrass (criteria 0-5) (windgrass)	herbicidal effect rating, B: Japanese bulrush (Japanese bulrush)	N: redroot pigweed, herbicidal effect rating (redroot pigweed [5])	G: green foxtail, herbicidal effect rating (green foxtail)	R: persian speedwell, herbicidal effect rating (persian speedwell [6])	herbicidal effect on F: southern crabgrass (criteria 0-5) (southern crabgrass)	J: blackgrass, herbicidal effect rating (blackgrass)	H: barnyard grass, herbicidal effect rating (barnyard grass [7])	herbicidal effect rating, C: oval-leafed pondweed (oval-leafed pondweed [8])	herbicidal effect on O: lambsquarters (criteria 0-5) (lambsquarters)
C=Cc1ccc2sc(-c3ccccc3OC)c(-c3c(O)c(C)nn(C)c3=O)c2c1 [2-185]	5 (Herbicidal rate of 90% or more (almost completely withered))	3 (Herbicidal rate of 40% or more and less than 70%)	5 (Herbicidal rate of 90% or more (almost completely withered))	0 (Herbicidal rate of 5% or less (almost no effect))	4 (Herbicidal rate of 70% or more and less than 90%)	5 (Herbicidal rate of 90% or more (almost completely withered))	1 (Herbicidal rate of 5% or more and less than 20%)	0 (Herbicidal rate of 5% or less (almost no effect))	5 (Herbicidal rate of 90% or more (almost completely withered))	0 (Herbicidal rate of 5% or less (almost no effect))	0 (Herbicidal rate of 5% or less (almost no effect))	2 (Herbicidal rate of 20% or more and less than 40%)	0 (Herbicidal rate of 5% or less (almost no effect))	0 (Herbicidal rate of 5% or less (almost no effect))	0 (Herbicidal rate of 5% or less (almost no effect))	4 (Herbicidal rate of 70% or more and less than 90%)
Cc1nn(C)c(=O)c(-c2c(-c3ccccc3)sc3ccc(F)cc23)c1O [2-197]	5 (Herbicidal rate of 90% or more (almost completely withered))	5 (Herbicidal rate of 90% or more (almost completely withered))	5 (Herbicidal rate of 90% or more (almost completely withered))	4 (Herbicidal rate of 70% or more and less than 90%)	5 (Herbicidal rate of 90% or more (almost completely withered))	3 (Herbicidal rate of 40% or more and less than 70%)	4 (Herbicidal rate of 70% or more and less than 90%)	3 (Herbicidal rate of 40% or more and less than 70%)	5 (Herbicidal rate of 90% or more (almost completely withered))	4 (Herbicidal rate of 70% or more and less than 90%)	3 (Herbicidal rate of 40% or more and less than 70%)	5 (Herbicidal rate of 90% or more (almost completely withered))	3 (Herbicidal rate of 40% or more and less than 70%)	5 (Herbicidal rate of 90% or more (almost completely withered))	4 (Herbicidal rate of 70% or more and less than 90%)	5 (Herbicidal rate of 90% or more (almost completely withered))
CCCC(=O)Oc1c(C)nn(C)c(=O)c1-c1c(-c2ccccc2)sc2ccc(F)cc12 [2-198]	5 (Herbicidal rate of 90% or more (almost completely withered))	5 (Herbicidal rate of 90% or more (almost completely withered))	5 (Herbicidal rate of 90% or more (almost completely withered))	3 (Herbicidal rate of 40% or more and less than 70%)	5 (Herbicidal rate of 90% or more (almost completely withered))	3 (Herbicidal rate of 40% or more and less than 70%)	4 (Herbicidal rate of 70% or more and less than 90%)	3 (Herbicidal rate of 40% or more and less than 70%)	5 (Herbicidal rate of 90% or more (almost completely withered))	5 (Herbicidal rate of 90% or more (almost completely withered))	4 (Herbicidal rate of 70% or more and less than 90%)	5 (Herbicidal rate of 90% or more (almost completely withered))	4 (Herbicidal rate of 70% or more and less than 90%)	4 (Herbicidal rate of 70% or more and less than 90%)	4 (Herbicidal rate of 70% or more and less than 90%)	5 (Herbicidal rate of 90% or more (almost completely withered))
Cc1nn(C)c(=O)c(-c2c(-c3ccccc3F)sc3ccc(F)cc23)c1O [2-199]	5 (Herbicidal rate of 90% or more (almost completely withered))	5 (Herbicidal rate of 90% or more (almost completely withered))	5 (Herbicidal rate of 90% or more (almost completely withered))	1 (Herbicidal rate of 5% or more and less than 20%)	5 (Herbicidal rate of 90% or more (almost completely withered))	2 (Herbicidal rate of 20% or more and less than 40%)	0 (Herbicidal rate of 5% or less (almost no effect))	2 (Herbicidal rate of 20% or more and less than 40%)	4 (Herbicidal rate of 70% or more and less than 90%)	4 (Herbicidal rate of 70% or more and less than 90%)	0 (Herbicidal rate of 5% or less (almost no effect))	4 (Herbicidal rate of 70% or more and less than 90%)	0 (Herbicidal rate of 5% or less (almost no effect))	4 (Herbicidal rate of 70% or more and less than 90%)	0 (Herbicidal rate of 5% or less (almost no effect))	5 (Herbicidal rate of 90% or more (almost completely withered))
Cc1nn(C)c(=O)c(-c2c(-c3ccc(Br)cc3)sc3ccc(F)cc23)c1O [2-205]	5 (Herbicidal rate of 90% or more (almost completely withered))	5 (Herbicidal rate of 90% or more (almost completely withered))	5 (Herbicidal rate of 90% or more (almost completely withered))	2 (Herbicidal rate of 20% or more and less than 40%)	5 (Herbicidal rate of 90% or more (almost completely withered))	1 (Herbicidal rate of 5% or more and less than 20%)	5 (Herbicidal rate of 90% or more (almost completely withered))	3 (Herbicidal rate of 40% or more and less than 70%)	5 (Herbicidal rate of 90% or more (almost completely withered))	5 (Herbicidal rate of 90% or more (almost completely withered))	5 (Herbicidal rate of 90% or more (almost completely withered))	5 (Herbicidal rate of 90% or more (almost completely withered))	0 (Herbicidal rate of 5% or less (almost no effect))	4 (Herbicidal rate of 70% or more and less than 90%)	2 (Herbicidal rate of 20% or more and less than 40%)	5 (Herbicidal rate of 90% or more (almost completely withered))
